Assay results published in US20030144263A1, “Oxazolidinone derivatives, process for their preparation and pharmaceutical compositions containing them” (Syngenta Limited, priority 1998, published 2003).
Converted amounts (≈) assume the structure as drawn. Like-named read-outs stand apart in the source and are kept apart here.

What was measured:
[1] = test system: Staphylococcus aureus Oxford; assay: MIC by agar-dilution, Staphylococcus aureus Oxford; format: cell-based; details: inoculum 10^4 CFU/spot, 37° C., 24 hours
Protocol: (§1) The following results were obtained on a standard in-vitro test system. The activity is described in terms of the minimum inhibitory concentration (MIC) determined by the agar-dilution technique with an inoculum size of 10^4 CFU/spot. Typically, compounds are active in the range 0.01 to 256 μg/ml.
(§2) Staphylococci were tested on agar, using an inoculum of 10^4 CFU/spot and an incubation temperature of 37° C. for 24 hours—standard test conditions for the expression of methicillin resistance.

[2] = test system: Staphylococcus aureus Novb. Res (Novobiocin resistant); assay: MIC by agar-dilution, Staphylococcus aureus Novb. Res; format: cell-based; details: inoculum 10^4 CFU/spot, 37° C., 24 hours
Protocol: as §1, §2

[3] = test system: Staphylococcus aureus MRQR (methicillin resistant quinolone resistant); assay: MIC by agar-dilution, Staphylococcus aureus MRQR; format: cell-based; details: inoculum 10^4 CFU/spot, 37° C., 24 hours
Protocol: as §1, §2

[4] = test system: Coagulase Negative Staphylococci MS (methicillin sensitive); assay: MIC by agar-dilution, Coagulase Negative Staphylococci MS; format: cell-based; details: inoculum 10^4 CFU/spot, 37° C., 24 hours
Protocol: as §1, §2

[5] = test system: Coagulase Negative Staphylococci MR (methicillin resistant); assay: MIC by agar-dilution, Coagulase Negative Staphylococci MR; format: cell-based; details: inoculum 10^4 CFU/spot, 37° C., 24 hours
Protocol: as §1, §2

[6] = test system: Streptococcus pyogenes C203; assay: MIC by agar-dilution, Streptococcus pyogenes C203; format: cell-based; details: agar with 5% defibrinated horse blood, 10^4 CFU/spot, 37° C., 5% carbon dioxide, 48 hours
Protocol: as §1, with “μg/ml. Streptococci and enterococci were tested on agar supplemented with 5% defibrinated horse blood, an inoculum of 10^4 CFU/spot and an incubation temperature of 37° C. in an atmosphere of 5% carbon dioxide for 48 hours—blood is required for the growth of some of the test organisms.” for “μg/ml.”

Enterococcus faecalis = assay: MIC by agar-dilution, Enterococcus faecalis; format: cell-based; details: agar with 5% defibrinated horse blood, 10^4 CFU/spot, 37° C., 5% carbon dioxide, 48 hours
Protocol: as §1, with “μg/ml. Streptococci and enterococci were tested on agar supplemented with 5% defibrinated horse blood, an inoculum of 10^4 CFU/spot and an incubation temperature of 37° C. in an atmosphere of 5% carbon dioxide for 48 hours—blood is required for the growth of some of the test organisms.” for “μg/ml.”

Bacillus subtilis = assay: MIC by agar-dilution, Bacillus subtilis; format: cell-based; details: inoculum 10^4 CFU/spot
Protocol: as §1

Compound	MIC ([1]; read-out: MIC)	MIC ([2]; read-out: MIC)	MIC ([3]; read-out: MIC)	MIC ([4]; read-out: MIC)	MIC ([5]; read-out: MIC)	MIC ([6]; read-out: MIC)	MIC (Enterococcus faecalis; read-out: MIC)	MIC (Bacillus subtilis; read-out: MIC)	melting point	also measured
O=C1O[C@@H](COc2cnsn2)CN1c1ccc(C2=CCOCC2)c(F)c1 [Example 10, 5(R)-(1,2,5-Thiadiazol-3-yloxymethyl)-3-(3-fluoro-4-(3,6-dihydro-(2H)-pyran-4-yl)phenyl)oxazolidin-2-one]	–	–	–	–	–	–	–	–	46 to 48 °C	–
O=C([C@H](O)CO)N1CC=C(c2ccc(N3C[C@H](COc4ccon4)OC3=O)cc2)CC1 [Example 40, 5(R)-Isoxazol-3-yloxymethyl-3-(4-(1-(2(R),3-dihydroxypropanoyl)-1,2,5,6-tetrahydropyrid-4-yl)phenyl)oxazolidin-2-one]	–	–	–	–	–	–	–	–	138 to 144 °C	–
O=C([C@@H](O)CO)N1CC=C(c2ccc(N3C[C@H](COc4ccon4)OC3=O)cc2)CC1 [Example 41, 5(R)-Isoxazol-3-yloxymethyl-3-(4-(1-(2(S),3-dihydroxypropanoyl)-1,2,5,6-tetrahydropyrid-4-yl)phenyl)oxazolidin-2-one]	–	–	–	–	–	–	–	–	200 to 202 °C (dec.)	–
O=C1O[C@@H](COc2cnsn2)CN1c1ccc(C2=CCOCC2)c(F)c1 [Example 142, 5(R)-1,2,5-Thiadiazol-3-yloxymethyl-3-(4-[3,6-dihydro-(2H)-pyran-4-yl]-3-fluorophenyl)oxazolidin-2-one]	–	–	–	–	–	–	–	–	146 to 148 °C	–
O=C(CO)N1CC=C(c2ccc(N3C[C@H](COc4cnsn4)OC3=O)cc2F)CC1 [Example 151, 5(R)-1,2,5-Thiadiazol-3-yloxymethyl-3-(4-(1-hydroxyacetyl-1,2,5,6-tetrahydropyrid-4-yl)-3-fluorophenyl)oxazolidin-2-one]	–	–	–	–	–	–	–	–	–	MIC [1]: 0.13 mg/L (≈ 0.299 µM); MIC [2]: 0.25 mg/L (≈ 0.575 µM); MIC [3]: 0.25 mg/L (≈ 0.575 µM); MIC [4]: 0.13 mg/L (≈ 0.299 µM); MIC [5]: 0.25 mg/L (≈ 0.575 µM); MIC [6]: 0.25 mg/L (≈ 0.575 µM); MIC (Enterococcus faecalis): 0.25 mg/L (≈ 0.575 µM); MIC (Bacillus subtilis): 0.13 mg/L (≈ 0.299 µM)
O=C1O[C@@H](COc2cnsn2)CN1c1ccc(N2C[C@@H]3C[C@H]2CN3Cc2ccccc2)c(F)c1 [Example 154, 5(R)-1 ,2,5-Thiadiazol-3-yloxymethyl-3-(4-((1 S)(4S)-2-benzyl-2,5-diazabicyclo{2.2.1}heptan-5-yl)-3-fluorophenyl)oxazolidin-2-one]	–	–	–	–	–	–	–	–	97 to 98 °C	–
CS(=O)(=O)c1ccc(N2C[C@H](COc3ccon3)OC2=O)cc1 [Example 163, 3-(4-Methylsulfonylphenyl)-5(R)-(isoxazol-3-yloxymethyl)oxazolidin-2-one]	–	–	–	–	–	–	–	–	180 °C	–

Continued, in another order:

MIC ([1]; read-out: MIC)	MIC ([2]; read-out: MIC)	MIC ([3]; read-out: MIC)	MIC ([4]; read-out: MIC)	MIC ([5]; read-out: MIC)	MIC ([6]; read-out: MIC)	MIC (Enterococcus faecalis; read-out: MIC)	MIC (Bacillus subtilis; read-out: MIC)	melting point	Compound	also measured
0.25 mg/L	0.5 mg/L	0.5 mg/L	0.13 mg/L	0.5 mg/L	0.5 mg/L	1 mg/L	0.25 mg/L	–	O=C(C(O)CO)N1CC=C(c2c(F)cc(N3C[C@H](COc4ccon4)OC3=O)cc2F)CC1 (mixture of isomers) [Example 4, 5(R)-Isoxazol-3-yloxymethyl-3-(4-(1-(2(R,S),3-dihydroxypropanoyl)-1,2,5,6-tetrahydropyrid-4-yl)-3,5-difluorophenyl)-oxazolidin-2-one]	–
0.25 mg/L (≈ 0.559 µM)	0.5 mg/L (≈ 1.12 µM)	0.5 mg/L (≈ 1.12 µM)	0.13 mg/L (≈ 0.291 µM)	0.5 mg/L (≈ 1.12 µM)	0.5 mg/L (≈ 1.12 µM)	1 mg/L (≈ 2.24 µM)	0.25 mg/L (≈ 0.559 µM)	–	O=C([C@@H](O)CO)N1CC=C(c2ccc(N3C[C@H](COc4ccon4)OC3=O)cc2F)CC1 [Example 12, 5(R)-Isoxazol-3-yloxymethyl-3-(4-(1-(2(S),3-dihydroxypropanoyl)-1,2,5,6-tetrahydropyrid-4-yl)-3-fluorophenyl)oxazolidin-2-one]	–
0.25 mg/L (≈ 0.537 µM)	0.25 mg/L (≈ 0.537 µM)	0.5 mg/L (≈ 1.07 µM)	0.13 mg/L (≈ 0.279 µM)	0.5 mg/L (≈ 1.07 µM)	0.25 mg/L (≈ 0.537 µM)	0.5 mg/L (≈ 1.07 µM)	0.25 mg/L (≈ 0.537 µM)	–	O=C([C@@H](O)CO)N1CC=C(c2c(F)cc(N3C[C@H](COc4ccon4)OC3=O)cc2F)CC1 [Example 18, 5(R)-Isoxazol-3-yloxymethyl-3-(4-(1-(2(S),3-dihydroxypropanoyl)-1,2,5,6-tetrahydropyrid-4-yl)-3,5-difluorophenyl)oxazolidin-2-one]	–
